Target: T1, PIP4K2C (Homo sapiens, UniProt Q8TBX8)
T1 sequence (Q8TBX8 1-421): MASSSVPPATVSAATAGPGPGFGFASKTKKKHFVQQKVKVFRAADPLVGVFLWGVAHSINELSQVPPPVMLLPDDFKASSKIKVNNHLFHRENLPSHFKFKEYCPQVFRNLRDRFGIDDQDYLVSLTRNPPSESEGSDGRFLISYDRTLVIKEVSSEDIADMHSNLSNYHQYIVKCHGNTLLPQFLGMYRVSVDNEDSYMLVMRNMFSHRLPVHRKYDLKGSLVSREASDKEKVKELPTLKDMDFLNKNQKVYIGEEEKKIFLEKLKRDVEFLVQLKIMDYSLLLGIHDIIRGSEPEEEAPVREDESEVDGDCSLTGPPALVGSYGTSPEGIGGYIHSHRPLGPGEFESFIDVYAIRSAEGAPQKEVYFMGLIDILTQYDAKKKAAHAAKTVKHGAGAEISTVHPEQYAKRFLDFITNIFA
Assay: HiBiT PIP4K2C degradation assay in MOLT-4 cells (endogenous PIP4K2C C-terminally tagged with HiBiT)
Format: cell-based
Parameters: untagged in primary human PBMCs and monocyte-derived dendritic cells
Conditions: 24 hours incubation, MOLT-4, top concentration 10 micromolar; read-out: HiBIT-degradation MOLT4 PIP4k2C 24 hours DC50
Text: Example B-2: HiBiT PIP4K2C degradation assay
Materials: MOLT-4, a human T lymphoblast cell line (see https://www.atcc.org/products/crl-1582, herein incorporated by reference in its entirety), was genetically engineered using CRISPR-Cas9 by Synthego Corporation (Redwood City, CA) to C-terminally tag endogenous PIP4K2C with HiBiT peptide. Following clonal selection, genotype was confirmed by Sanger sequencing. MO LT-4 were maintained using RPMI-1640 medium from Gibco (Grand Island, NY, catalog number 11875-085) supplemented with 10% fetal bovine serum (FBS) from VWR (Philadelphia, PA, catalog number 97068-085). For HiBiT assays the cells were resuspended in RPMI-1640 medium without phenol read from Gibco (Grand Island, NY, catalog number 11835-030) supplemented with 10% FBS. Nano-Glo® HiBiT Lytic Assay System was purchased from Promega (Madison, WI, Catalog number N3030). Cell culture flasks and 384-well microplates were purchased from Corning (Glendale, AZ).
To study PIP4K2C degradation, 384-well plates were plated with a 10-point dose response curve, 3-fold dilution, in duplicate with a top starting concentration of 10 micromolar. Subsequently 22,500 cells were added to each well and incubated at 37 C in 5% C02 for 24 hours or 6 hours. At the end of the incubation time, cells were treated with the Nano-Glo® HiBiT Lytic Detection System following the manufacturer's instructions. Luminescence was measured with a PHERAstar FSX plate reader (BMG Labtech, Cary, NC). The Levenberg-Marquardt algorithm was used to fit a Hill equation to dose-response data to calculate DC50 values (see Table 6).

| SMILES | DC50 [nM] |
| --- | --- |
| O=C1CCC(Nc2ccc(C3CCN(CC4CCN(C(=O)[C@H]5CCC[C@@H](Nc6ncc(Cl)c(-c7cccc(-c8ccccc8)c7)n6)C5)CC4)CC3)cc2)C(=O)N1 (relative stereo) [Compound 65, cis-3-((4-(1-((1-(3-((4-([1,1′-biphenyl]-3-yl)-5-chloropyrimidin-2-yl)amino)cyclohexane-1-carbonyl)piperidin-4-yl)methyl)piperidin-4-yl)phenyl)amino)piperidine-2,6-dione] | < 500 |
| O=C1CCC(N2Cc3cc(OC4CCN(CC5CCN(C(=O)[C@H]6CCC[C@@H](Nc7ncc(Cl)c(-c8cccc(-c9ccccc9)c8)n7)C6)CC5)CC4)ccc3C2=O)C(=O)N1 (relative stereo) [Compound 76, cis-3-(5-((1-((1-(3-((4-([1,1′-biphenyl]-3-yl)-5-chloropyrimidin-2-yl)amino)cyclohexane-1-carbonyl)piperidin-4-yl)methyl)piperidin-4-yl)oxy)-1-oxoisoindolin-2-yl)piperidine-2,6-dione] | < 500 |
| O=C1CCC(N2Cc3cc(OC4CCN(CCC5CCN(C(=O)[C@H]6CCC[C@@H](Nc7ncc(Cl)c(-c8cccc(-c9ccccc9)c8)n7)C6)CC5)CC4)ccc3C2=O)C(=O)N1 (relative stereo) [Compound 79, cis-3-(5-((1-(2-(1-(3-((4-([1,1′-biphenyl]-3-yl)-5-chloropyrimidin-2-yl)amino)cyclohexane-1-carbonyl)piperidin-4-yl)ethyl)piperidin-4-yl)oxy)-1-oxoisoindolin-2-yl)piperidine-2,6-dione] | < 500 |
| O=C1CCC(N2Cc3cc(OC4CCN(CCN5CCN(C(=O)[C@H]6CCC[C@@H](Nc7ncc(Cl)c(-c8cccc(-c9ccccc9)c8)n7)C6)CC5)CC4)ccc3C2=O)C(=O)N1 (relative stereo) [Compound 80, cis-3-(5-((1-(2-(4-(3-((4-([1,1′-biphenyl]-3-yl)-5-chloropyrimidin-2-yl)amino)cyclohexane-1-carbonyl)piperazin-1-yl)ethyl)piperidin-4-yl)oxy)-1-oxoisoindolin-2-yl)piperidine-2,6-dione] | < 500 |
| O=C1CCC(N2Cc3cc(OC4CCN(C(=O)CC5CCN(C(=O)[C@H]6CCC[C@@H](Nc7ncc(Cl)c(-c8cccc(-c9ccccc9)c8)n7)C6)CC5)CC4)ccc3C2=O)C(=O)N1 (relative stereo) [Compound 81, cis-3-(5-((1-(2-(1-(3-((4-([1,1′-biphenyl]-3-yl)-5-chloropyrimidin-2-yl)amino)cyclohexane-1-carbonyl)piperidin-4-yl)acetyl)piperidin-4-yl)oxy)-1-oxoisoindolin-2-yl)piperidine-2,6-dione] | < 500 |
| O=C1CCC(N2Cc3cc(OC4CCN(C(=O)CN5CCN(C(=O)[C@H]6CCC[C@@H](Nc7ncc(Cl)c(-c8cccc(-c9ccccc9)c8)n7)C6)CC5)CC4)ccc3C2=O)C(=O)N1 (relative stereo) [Compound 82, cis-3-(5-((1-(2-(4-(3-((4-([1,1′-biphenyl]-3-yl)-5-chloropyrimidin-2-yl)amino)cyclohexane-1-carbonyl)piperazin-1-yl)acetyl)piperidin-4-yl)oxy)-1-oxoisoindolin-2-yl)piperidine-2,6-dione] | < 500 |
| Cn1c(=O)n(C2CCC(=O)NC2=O)c2ccc(C3CCN(CCC4CCN(C(=O)[C@H]5CCC[C@@H](Nc6ncc(Cl)c(-c7cccc(-c8ccc(F)cc8)c7)n6)C5)CC4)CC3)cc21 (relative stereo) [Compound 279, cis-3-(5-(1-(2-(1-(3-((5-chloro-4-(4′-fluoro-[1,1′-biphenyl]-3-yl)pyrimidin-2-yl)amino)cyclohexane-1-carbonyl)piperidin-4-yl)ethyl)piperidin-4-yl)-3-methyl-2-oxo-2,3-dihydro-1H-benzo[d]imidazol-1-yl)piperidine-2,6-dione] | < 500 |
| O=C1CCC(Nc2ccc(C3CCN(CC(=O)N4CCC5(C4)CN(C(=O)[C@H]4CCC[C@@H](Nc6ncc(Cl)c(-c7cccc(-c8ccc(F)cc8)c7)n6)C4)C5)CC3)c(F)c2)C(=O)N1 (relative stereo) [Compound 284, cis-3-((4-(1-(2-(2-(3-((5-chloro-4-(4′-fluoro-[1,1′-biphenyl]-3-yl)pyrimidin-2-yl)amino)cyclohexane-1-carbonyl)-2,6-diazaspiro[3.4]octan-6-yl)-2-oxoethyl)piperidin-4-yl)-3-fluorophenyl)amino)piperidine-2,6-dione] | < 500 |
| Cn1c(=O)n(C2CCC(=O)NC2=O)c2ccc(C3CCN(CCC4CCN(C(=O)[C@H]5CCC[C@@H](Nc6ncc(F)c(-c7cccc(-n8ccccc8=O)c7)n6)C5)CC4)CC3)cc21 (relative stereo) [Compound 291, cis-3-(5-(1-(2-(1-(3-((5-fluoro-4-(3-(2-oxopyridin-1(2H)-yl)phenyl)pyrimidin-2-yl)amino)cyclohexane-1-carbonyl)piperidin-4-yl)ethyl)piperidin-4-yl)-3-methyl-2-oxo-2,3-dihydro-1H-benzo[d]imidazol-1-yl)piperidine-2,6-dione] | < 500 |
| O=C1CCC(Oc2ccc(N3CCC(O)(CC(=O)N4CCN(C(=O)[C@H]5CCC[C@@H](Nc6ncc(Cl)c(-c7cccc(-c8ccc(F)cc8)c7)n6)C5)CC4)CC3)c(F)c2)C(=O)N1 (relative stereo) [Compound 292, cis-3-(4-(4-(2-(4-(3-((5-chloro-4-(4′-fluoro-[1,1′-biphenyl]-3-yl)pyrimidin-2-yl)amino)cyclohexane-1-carbonyl)piperazin-1-yl)-2-oxoethyl)-4-hydroxypiperidin-1-yl)-3-fluorophenoxy)piperidine-2,6-dione] | > 5000 |
| O=C1CCC(Nc2ccc(N3CCC(N4CCC(CNC(=O)[C@H]5CCC[C@@H](Nc6ncc(F)c(-c7cccc(-n8ccccc8=O)c7)n6)C5)CC4)CC3)cc2)C(=O)N1 (relative stereo) [Compound 297, cis-N-((1′-(4-((2,6-dioxopiperidin-3-yl)amino)phenyl)-[1,4′-bipiperidin]-4-yl)methyl)-3-((5-fluoro-4-(3-(2-oxopyridin-1(2H)-yl)phenyl)pyrimidin-2-yl)amino)cyclohexane-1-carboxamide] | < 500 |
| Cn1nc(C2CCC(=O)NC2=O)c2ccc(C3CCN(CCC4CCN(C(=O)[C@H]5CCC[C@@H](Nc6ncc(F)c(-c7cccc(-n8ccccc8=O)c7)n6)C5)CC4)CC3)cc21 (relative stereo) [Compound 298, 3-(6-(1-(2-(1-(cis-3-((5-fluoro-4-(3-(2-oxopyridin-1(2H)-yl)phenyl)pyrimidin-2-yl)amino)cyclohexane-1-carbonyl)piperidin-4-yl)ethyl)piperidin-4-yl)-1-methyl-1H-indazol-3-yl)piperidine-2,6-dione] | < 500 |
| O=C1CCC(n2c(=O)oc3cc(N4CCC(N5CCC(CNC(=O)[C@H]6CCC[C@@H](Nc7ncc(F)c(-c8cccc(-n9ccccc9=O)c8)n7)C6)CC5)CC4)ccc32)C(=O)N1 (relative stereo) [Compound 299, cis-N-((1′-(3-(2,6-dioxopiperidin-3-yl)-2-oxo-2,3-dihydrobenzo[d]oxazol-6-yl)-[1,4′-bipiperidin]-4-yl)methyl)-3-((5-fluoro-4-(3-(2-oxopyridin-1(2H)-yl)phenyl)pyrimidin-2-yl)amino)cyclohexane-1-carboxamide] | < 500 |
| O=C1CCC(n2c(=O)oc3cc(C4CCN(C[C@H]5CC[C@H](NC(=O)[C@H]6CCC[C@@H](Nc7ncc(F)c(-c8cccc(-n9ccccc9=O)c8)n7)C6)CC5)CC4)ccc32)C(=O)N1 (relative stereo) [Compound 306, cis-trans-N-(4-((4-(3-(2,6-dioxopiperidin-3-yl)-2-oxo-2,3-dihydrobenzo[d]oxazol-6-yl)piperidin-1-yl)methyl)cyclohexyl)-3-((5-fluoro-4-(3-(2-oxopyridin-1(2H)-yl)phenyl)pyrimidin-2-yl)amino)cyclohexane-1-carboxamide] | < 500 |
| Cn1nc(C2CCC(=O)NC2=O)c2ccc(C3CCN(C[C@H]4CC[C@H](NC(=O)[C@H]5CCC[C@@H](Nc6ncc(F)c(-c7cccc(-n8ccccc8=O)c7)n6)C5)CC4)CC3)cc21 (relative stereo) [Compound 307, cis-trans-N-(4-((4-(3-(2,6-dioxopiperidin-3-yl)-1-methyl-1H-indazol-6-yl)piperidin-1-yl)methyl)cyclohexyl)-3-((5-fluoro-4-(3-(2-oxopyridin-1(2H)-yl)phenyl)pyrimidin-2-yl)amino)cyclohexane-1-carboxamide] | 1000 to 5000 |

From patent US20260355196A1, “INHIBITORS AND DEGRADERS OF PIP4K PROTEIN” (Larkspur Biosciences, Inc., priority 2023, published 2026)
